Source: patent publication US9850216B2 (H. LEE MOFFITT CANCER CENTER AND RESEARCH INSTITUTE, INC., priority 2013, dated 2017)
Values joined by “and” are separate entries in the source; they are usually repeats but may differ in a detail not shown here. Identical values can stand only once. Counter-ions that a name gives are not always drawn. Like-named read-outs stand apart in the source and are kept apart here.

Columns and labels:
ACK1 [1] = target: T1, ACK1 (Homo sapiens, UniProt Q07912); test: ACK1 ELISA: phosphorylation of AKT-derived peptide; type: biochemical
T1 sequence (Q07912 whole entry): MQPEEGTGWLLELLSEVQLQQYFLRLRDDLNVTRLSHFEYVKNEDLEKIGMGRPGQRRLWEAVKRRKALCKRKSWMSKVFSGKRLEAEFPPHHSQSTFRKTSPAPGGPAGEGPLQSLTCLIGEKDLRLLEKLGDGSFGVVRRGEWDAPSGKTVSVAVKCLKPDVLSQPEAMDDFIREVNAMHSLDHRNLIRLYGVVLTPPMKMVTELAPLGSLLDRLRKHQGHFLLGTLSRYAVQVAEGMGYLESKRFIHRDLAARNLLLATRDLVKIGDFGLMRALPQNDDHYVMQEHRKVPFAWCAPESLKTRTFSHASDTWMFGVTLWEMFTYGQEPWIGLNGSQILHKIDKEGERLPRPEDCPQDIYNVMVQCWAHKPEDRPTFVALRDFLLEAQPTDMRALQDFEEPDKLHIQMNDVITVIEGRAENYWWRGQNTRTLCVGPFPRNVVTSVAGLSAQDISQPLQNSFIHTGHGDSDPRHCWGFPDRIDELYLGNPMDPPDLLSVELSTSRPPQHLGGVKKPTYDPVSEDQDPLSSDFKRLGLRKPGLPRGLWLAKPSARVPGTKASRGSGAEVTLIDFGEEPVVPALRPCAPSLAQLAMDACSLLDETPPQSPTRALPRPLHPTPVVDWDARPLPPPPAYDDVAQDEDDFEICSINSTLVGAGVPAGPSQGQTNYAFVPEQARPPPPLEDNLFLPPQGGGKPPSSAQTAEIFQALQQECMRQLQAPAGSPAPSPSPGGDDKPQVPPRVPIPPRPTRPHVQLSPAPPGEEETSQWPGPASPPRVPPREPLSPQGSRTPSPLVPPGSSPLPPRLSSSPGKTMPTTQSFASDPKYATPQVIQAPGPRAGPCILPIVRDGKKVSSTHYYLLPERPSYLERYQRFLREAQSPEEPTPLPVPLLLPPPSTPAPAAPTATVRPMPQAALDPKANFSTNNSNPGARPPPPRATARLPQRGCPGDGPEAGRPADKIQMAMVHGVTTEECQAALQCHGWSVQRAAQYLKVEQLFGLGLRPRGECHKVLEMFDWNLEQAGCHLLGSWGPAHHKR

ACK1 [2] = target: T1, ACK1; test: 32P Hotspot assay (Reaction Biology), ACK1 IC50; type: biochemical
Experimental: 8 compounds were tested against […], ACK1, Src and ALK in various combinations. […] Reactions were carried out at 10 μM ATP.

AR [3] = test: AR protein levels in androgen-deprived prostate cancer cells, immunoblotting; type: cell-based, human; settings: immunoblotting (FIG. 2)
Experimental: Transcriptional regulation of the AR gene itself is a paradigm that merits thorough investigation. […] Whether AR utilizes ACK1 to facilitate its transcriptional co-activator function is not known. […] Cells were also treated with ACK1-specific small molecule inhibitors, DZ1-067 or AIM-100.

AR [4] = test: AR mRNA by real time PCR in androgen-deprived prostate cancer cells; type: cell-based, human; settings: overnight treatment (FIG. 3a, b)
Description: Total RNA was isolated followed by qPCR with AR primers. VCaP, *p=0.022; LNCaP, *p=0.042, **p=0.047. […] Total RNA was isolated followed by qPCR with PSA primers.

LAPC4 cells = test: Cell growth, LAPC4; type: cell-based, human
Description: Selected compounds from the library 9 were chosen to evaluate the effects of ACK1 inhibition in LAPC4 human prostate cancer cells with inhibition of cell growth as a read out. […] Based on the findings from cell culture data, enantiomers of 9b were synthesized to understand the ACK1 inhibitory activities of individual stereoisomers. […] The synthesis of (R)-9b and (S)-9b are shown in the Scheme 4 and other examples of enantiomerically pure compounds (not reported here) were also synthesized using the protocols in the Scheme 4.
Three distinct human prostate cancer derived cell lines, LNCaP, LAPC4 and VCaP were either DMSO treated or treated with 1, 2.5, 5, 7.5 and 10 μM of inhibitors, AIM-100, (R)-9b and (S)-9b for 36 hrs and the number of viable cells were counted by trypan blue exclusion assay.

[5] = 10 μM, Table 1, replicate values listed, hydrochloride
[6] = Table 3, 10-dose, 3-fold dilution from 10 μM, 10 μM ATP, read-out: Compound IC50* (M): ACK1
[7] = 10 μM, Table 1, replicate values listed
[8] = 10 μM, Table 1, replicate values listed, read-out: % Inhibition at 10 μM (ELISA)
[9] = Table 4, 10-dose, 10 μM ATP, read-out: Compound IC50 (M), ACK1
[10] = 10 μM, Table 2, library 9, read-out: % Inhibition @ 10 μM (ELISA)
[11] = 32P hotspot / enzymatic assay, read-out: ACK1 IC50
[12] = Table 1, unit inferred, (RB) = Reaction Biology, replicates listed, read-out: IC50
[13] = Table 2, read-out: IC50 (32P Hotspot assay)
[14] = Table 1, nM, (RB) = Reaction Biology, replicates listed, read-out: IC50

SMILES	% Inhibition at 10 μM (ELISA) (ACK1 [1]; [7])	inhibition at 10 µM (ACK1 [1]; [8])	IC50 (ACK1 [2]; [12])	also measured
Cl.Oc1ccc(Nc2ncc(Br)c(NCC3CCCO3)n2)cc1 (stereo not drawn) [SK1-028, 4-(5-Bromo-4-((tetrahydrofuran-2-yl)methylamino)pyrimidin-2-ylamino)phenol hydrochloride]	–	–	–	% Inhibition at 10 μM (ELISA) (ACK1 [1]; [5]): 59% and 81% and 85% and 65% and 67%; IC50 (ACK1 [2]; [6]): 1.64e-07 M
Brc1cnc(Nc2ccc(N3CCNCC3)cc2)nc1NCC1CCCO1 (stereo not drawn) [YL9-167, 5-Bromo-N2-(4-(piperazin-1-yl)phenyl)-N4-((tetrahydrofuran-2-yl)methyl)pyrimidine-2,4-diamine TFA salt]	–	–	–	IC50 (ACK1 [2]; [6]): 9.47e-08 M
O=C(O)CCC(=O)N1CCN(c2ccc(Nc3ncc(C(=O)Nc4c(F)cccc4Cl)c(NCC4CCCO4)n3)cc2)CC1 (stereo not drawn) [YL9-163, 4-(4-(4-(5-(2-Chloro-6-fluorophenylcarbamoyl)-4-((tetrahydrofuran-2-yl)methylamino)pyrimidin-2-ylamino)phenyl)piperazin-1-yl)-4-oxobutanoic acid]	93%	85%	–	IC50 (ACK1 [2]; [6]): 2.84e-08 M
CN1CCN(c2ccc(Nc3ncc(Cl)c(NCC4CCCO4)n3)cc2)CC1 (stereo not drawn) [MH1-022-5, 5-chloro-N2-(4-(4-methylpiperazin-1-yl)phenyl)-N4-((tetrahydrofuran-2-yl)methyl)pyrimidine-2,4-diamine]	91%	90%	–	IC50 (ACK1 [2]; [9]): 5.44e-08 M
Clc1cnc(Nc2ccc(C3CCNCC3)cc2)nc1NCC1CCCO1 (stereo not drawn) [Compound 9f]	–	–	–	inhibition at 10 µM (ACK1 [1]; [10]): 79.5 ± 0.7%; IC50 (ACK1 [2]; [11]): 2.31e-07 M
Clc1cnc(Nc2ccc(N3CCOCC3)cc2)nc1NC[C@@H]1CCCO1 [DZ1-074]	–	–	7.41e-08 M	–
CCCS(=O)(=O)Nc1ccc(F)c(C(=O)c2c[nH]c3ncc(-c4ccc(Cl)cc4)cc23)c1F [PLX4032]	–	–	–	AR protein levels (AR [3]): little effect on AR expression; AR mRNA levels (AR [4]): no significant change
O=C(O)C1CCN(c2ccc(Nc3ncc(Cl)c(NC[C@@H]4CCCO4)n3)cc2)CC1 [DZ1-082, (S)-1-(4-(5-chloro-4-((tetrahydrofuran-2-yl)methylamino)pyrimidin-2-ylamino)phenyl)piperidine-4-carboxylic acid]	94%	92%	5.47e-08 M	–
O=C(Nc1c(F)cccc1Cl)c1cnc(Nc2ccc(N3CCNCC3)cc2)nc1NCC1CCCO1 (stereo not drawn) [YL9-162, N-(2-chloro-6-fluorophenyl)-2-(4-(piperazin-1-yl)phenylamino)-4-((tetrahydrofuran-2-yl)methylamino)pyrimidine-5-carboxamide TFA salt]	–	–	3.32e-08 M	% Inhibition at 10 μM (ELISA) (ACK1 [1]; 10 μM, Table 1, replicate values listed, TFA salt): 88%; inhibition at 10 µM (ACK1 [1]; read-out: % Inhibition at 10 μM (ELISA), 10 μM, Table 1, replicate values listed): 91%
CN1CCN(c2ccc(Nc3ncc(C(=O)Nc4c(F)cccc4Cl)c(NCC4CCCO4)n3)cc2)CC1 (stereo not drawn) [DZ1-114, N-(2-chloro-6-fluorophenyl)-2-(4-(4-methylpiperazin-1-yl)phenylamino)-4-((tetrahydrofuran-2-yl)methylamino)pyrimidine-5-carboxamide]	95%	99%	–	IC50 (ACK1 [2]; [6]): 4.83e-08 M
Oc1ccc(Nc2ncc(Cl)c(NCC3CCCO3)n2)cc1 (stereo not drawn) [DZ1-120, 4-(5-chloro-4-((tetrahydrofuran-2-yl)methylamino)pyrimidin-2-ylamino)phenol]	58%	73%	1.63e-07 M	IC50 (ACK1 [2]; [6]): 1.63e-07 M
O=C(Nc1c(F)cccc1Cl)c1cnc(Nc2ccc(N3CCNCC3)cc2)nc1NCC1CCCO1 (stereo not drawn) [Compound 9m]	–	–	–	inhibition at 10 µM (ACK1 [1]; read-out: % Inhibition @ 10 μM (ELISA), 10 μM, Table 2, library 9): 89.5 ± 2.1%; cellular potency, ACK1 inhibition in LAPC4 cells with cell growth as read out (LAPC4 cells): did not display the expected cellular potency
Clc1cnc(Nc2ccc(N3CCOCC3)cc2)nc1NCC1CCCO1 (stereo not drawn) [Compound 9c]	–	–	–	IC50 (ACK1 [2]; [13]): 6.75e-08 M
CCOC(=O)C1CCN(c2ccc(Nc3ncc(Cl)c(NCC4CCCO4)n3)cc2)CC1.Cl (stereo not drawn) [YL8-047, Ethyl 1-(4-(5-chloro-4-((tetrahydrofuran-2-yl)methylamino)pyrimidin-2-ylamino)phenyl)piperidine-4-carboxylate hydrochloride]	–	65%	–	% Inhibition at 10 μM (ELISA) (ACK1 [1]; [5]): 67% and 69%; IC50 (ACK1 [2]; [14]): 1.08e-07 M
CN1CCN(c2ccc(Nc3ncc(Cl)c(NCC4CCCO4)n3)cc2)CC1 (stereo not drawn) [Compound 9b]	–	–	–	inhibition at 10 µM (ACK1 [1]; [10]): 90.5 ± 0.7%; cellular potency, ACK1 inhibition in LAPC4 cells with cell growth as read out (LAPC4 cells): promising ACK1 inhibitory activities in cellular assays
Clc1cnc(Nc2ccc(N3CCOCC3)cc2)nc1NC[C@H]1CCCO1 [DZ1-064]	–	–	4.65e-08 M	–

SMILES	% Inhibition at 10 μM (ELISA) (ACK1 [1]; [7])	inhibition at 10 µM (ACK1 [1]; [8])	IC50 (ACK1 [2]; [12])	also measured
O=C(O)C1CCN(c2ccc(Nc3ncc(Cl)c(NC[C@H]4CCCO4)n3)cc2)CC1 [DZ1-072, (R)-1-(4-(5-chloro-4-((tetrahydrofuran-2-yl)methylamino)pyrimidin-2-ylamino)phenyl)piperidine-4-carboxylic acid]	95%	96%	9.16e-08 M	–
O=C(O)C1CCN(c2ccc(Nc3ncc(Cl)c(NCC4CCCO4)n3)cc2)CC1 (stereo not drawn) [Compound 9e]	–	–	–	inhibition at 10 µM (ACK1 [1]; [10]): 93 ± 5.1%; IC50 (ACK1 [2]; [11]): 8.5e-08 M
Brc1cnc(Nc2ccc(C3CCNCC3)cc2)nc1NCC1CCCO1 (stereo not drawn) [Compound 9k]	–	–	–	inhibition at 10 µM (ACK1 [1]; [10]): 84.5 ± 0.7%; IC50 (ACK1 [2]; [13]): 1.69e-07 M
Cl.Oc1ccc(Nc2ncc(Br)c(NCC3CCCO3)n2)cc1F (stereo not drawn) [SK1-044, 4-(5-bromo-4-((tetrahydrofuran-2-yl)methylamino)pyrimidin-2-ylamino)-2-fluorophenol]	89% and 63% and 28% and 38%	–	–	IC50 (ACK1 [2]; [14]): 2.99e-07 M
Cc1cc(Nc2ncc(Br)c(NCC3CCCO3)n2)ccc1O.Cl (stereo not drawn) [SK1-040, 4-(5-bromo-4-((tetrahydrofuran-2-yl)methylamino)pyrimidin-2-ylamino)-2-methylphenol]	90% and 61% and 56% and 57%	–	–	IC50 (ACK1 [2]; [14]): 9.95e-08 M
Brc1cnc(Nc2ccc(N3CCOCC3)cc2)nc1NCC1CCCO1.Cl (stereo not drawn) [DZ1-091, 5-bromo-N2-(4-morpholinophenyl)-N4-((tetrahydrofuran-2-yl)methyl)pyrimidine-2,4-diamine]	90%	88%	1.06e-07 M	–
Cl.O=C(Nc1c(F)cccc1Cl)c1cnc(Nc2ccc(N3CCC(C(=O)O)CC3)cc2)nc1NCC1CCCO1 (stereo not drawn) [DZ1-096]	98, 98%	98%	3.63e-08 M and 3.22e-08 M	IC50 (ACK1 [2]; [9]): 3.22e-08 M
Clc1cnc(Nc2ccc(N3CCNCC3)cc2)nc1NCC1CCCO1 (stereo not drawn) [Compound 9a]	–	–	–	% Inhibition @ 10 μM (ELISA) (ACK1 [1]; 10 μM, Table 2, library 9): 82 ± 12.7%; IC50 (ACK1 [2]; [11]): 8.1e-08 M
O=C(Nc1c(F)cccc1Cl)c1cnc(Nc2ccc(N3CCC(C(=O)O)CC3)cc2)nc1NCC1CCCO1 (stereo not drawn) [Compound 9s]	–	–	–	inhibition at 10 µM (ACK1 [1]; [10]): 98%; IC50 (ACK1 [2]; [11]): 3.4e-08 M and 3.2e-08 M; IC50 (ACK1 [2]; [13]): 3.42e-08 M
Cc1cc(Nc2ncc(Cl)c(Nc3ccccc3S(=O)(=O)C(C)C)n2)c(OC(C)C)cc1C1CCNCC1 [LDK, reference compound]	–	–	8.87e-08 M	–
CN1CCN(c2ccc(Nc3ncc(Br)c(NCC4CCCO4)n3)cc2)CC1 (stereo not drawn) [DZ1-122, 5-bromo-N2-(4-(4-methylpiperazin-1-yl)phenyl)-N4-((tetrahydrofuran-2-yl)methyl)pyrimidine-2,4-diamine]	91%	95%	4.8e-08 M	–
Cl.O=C(Nc1c(F)cccc1Cl)c1cnc(Nc2ccc(C3CCNCC3)cc2)nc1NCC1CCCO1 (stereo not drawn) [DZ1-089, N-(2-chloro-6-fluorophenyl)-2-(4-(piperidin-4-yl)phenylamino)-4-((tetrahydrofuran-2-yl)methylamino)pyrimidine-5-carboxamide]	97, 97%	–	5.33e-08 M	–
O=C(Nc1c(F)cccc1Cl)c1cnc(Nc2ccc(O)cc2)nc1NCC1CCCO1 (stereo not drawn) [YL7-104-2, N-(2-chloro-6-fluorophenyl)-2-(4-hydroxyphenylamino)-4-((tetrahydrofuran-2-yl)methylamino)pyrimidine-5-carboxamide]	76%	85%	–	IC50 (ACK1 [2]; [14]): 5.44e-08 M
CS(=O)(=O)c1ccccc1Nc1nc(Cl)ncc1C(=O)Nc1c(F)cccc1Cl [YL7-034, 2-Chloro-N-(2-chloro-6-fluorophenyl)-4-(2-(methylsulfonyl)phenylamino)pyrimidine-5-carboxamide]	16% and −3% and −6%	–	–	melting point: 211 to 214 °C
Cl.Fc1cc(Nc2ncc(Br)c(NCC3CCCO3)n2)ccc1Cl (stereo not drawn) [YL7-172-7, 5-Bromo-N2-(4-chloro-3-fluorophenyl)-N4-((tetrahydrofuran-2-yl)methyl)pyrimidine-2,4-diamine hydrochloride]	–	–	–	% Inhibition at 10 μM (ELISA) (ACK1 [1]; [5]): 0% and 5% and 3%; melting point: 172 °C (dec.)
